According to the supplement of paper PMC10307832:

Assays:
Test in all cases: relative viability (nuclei count vs DMSO), 5 days (fraction); higher = more cells survive
EPLC-272H = system: EPLC-272H
In short: (§1)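 Lung cancer cell lines were seeded in 1536-well plates and dosed by pin tool the next day, with either a single drug or a fixed anchor-drug dose combined with five library-drug doses (not always all listed) spaced in √10 steps. Five days later, one step fixed the cells and stained their nuclei (final 0.05% Triton X-100, 1% formaldehyde, 1 ug/ml Hoechst), and nuclei were counted on 4× images. Relative viability is the nuclei count in treated wells divided by the count in vehicle wells, and each value is the median of duplicate plates.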

A-427 = system: A-427
In short: as §1

EKVX = system: EKVX
In short: as §1

LXF-289 = system: LXF-289
In short: as §1

HCC-827 = system: HCC-827
In short: as §1

NCI-H1650 = system: NCI-H1650
In short: as §1

SW 1573 = system: SW 1573
In short: as §1

NCI-H358 = system: NCI-H358
In short: as §1

COR-L23 = system: COR-L23
In short: as §1

NCI-H460 = system: NCI-H460
In short: as §1

NCI-H1651 = system: NCI-H1651
In short: as §1

NCI-H2126 = system: NCI-H2126
In short: as §1

HCC-44 = system: HCC-44
In short: as §1

NCI-H1915 = system: NCI-H1915
In short: as §1

LK-2 = system: LK-2
In short: as §1

NCI-H2087 = system: NCI-H2087
In short: as §1

201T = system: 201T
In short: as §1

LCLC-103H = system: LCLC-103H
In short: as §1

BEN = system: BEN
In short: as §1

EMC-BAC-2 = system: EMC-BAC-2
In short: as §1

NCI-H596 = system: NCI-H596
In short: as §1

NCI-H2347 = system: NCI-H2347
In short: as §1

Cc1cnc(-c2cnc(NCCNc3ccc(C#N)cn3)nc2-c2ccc(Cl)cc2Cl)[nH]1 + C[C@@H](Oc1cc(-c2cnn(C3CCNCC3)c2)cnc1N)c1c(Cl)ccc(F)c1Cl [Crizotinib] (partner 1 µM)
relative viability (EPLC-272H; first compound 0.08 µM): 0.928
relative viability (EPLC-272H; first compound 0.253 µM): 0.872
relative viability (EPLC-272H; first compound 0.8 µM): 0.832
relative viability (EPLC-272H; first compound 2.53 µM): 0.883
relative viability (A-427; first compound 0.08 µM): 0.911
relative viability (A-427; first compound 0.253 µM): 0.972
relative viability (A-427; first compound 0.8 µM): 0.882
relative viability (A-427; first compound 2.53 µM): 0.826
relative viability (EKVX; first compound 0.08 µM): 0.938
relative viability (EKVX; first compound 0.253 µM): 0.823
relative viability (EKVX; first compound 0.8 µM): 0.854
relative viability (EKVX; first compound 2.53 µM): 0.993
relative viability (LXF-289; first compound 0.08 µM): 0.852
relative viability (LXF-289; first compound 0.253 µM): 0.796
relative viability (LXF-289; first compound 0.8 µM): 0.839
relative viability (LXF-289; first compound 2.53 µM): 0.87
relative viability (HCC-827; first compound 0.08 µM): 0.929
relative viability (HCC-827; first compound 0.8 µM): 0.882
relative viability (HCC-827; first compound 2.53 µM): 0.923
relative viability (NCI-H1650; first compound 0.08 µM): 0.92
relative viability (NCI-H1650; first compound 0.253 µM): 0.909
relative viability (NCI-H1650; first compound 0.8 µM): 1.07
relative viability (NCI-H1650; first compound 2.53 µM): 0.844
relative viability (SW 1573; first compound 0.08 µM): 0.932
relative viability (SW 1573; first compound 0.253 µM): 0.879
relative viability (SW 1573; first compound 0.8 µM): 0.785
relative viability (SW 1573; first compound 2.53 µM): 0.772
relative viability (NCI-H358; first compound 0.08 µM): 0.609
relative viability (NCI-H358; first compound 0.253 µM): 0.548
relative viability (NCI-H358; first compound 0.8 µM): 0.569
relative viability (NCI-H358; first compound 2.53 µM): 0.46
relative viability (COR-L23; first compound 0.08 µM): 0.619
relative viability (COR-L23; first compound 0.253 µM): 0.605
relative viability (COR-L23; first compound 0.8 µM): 0.833
relative viability (COR-L23; first compound 2.53 µM): 0.722
relative viability (NCI-H460; first compound 0.08 µM): 1.03
relative viability (NCI-H460; first compound 0.253 µM): 0.857
relative viability (NCI-H460; first compound 0.8 µM): 0.858
relative viability (NCI-H460; first compound 2.53 µM): 0.776
relative viability (NCI-H1651; first compound 0.08 µM): 0.915
relative viability (NCI-H1651; first compound 0.253 µM): 0.797
relative viability (NCI-H1651; first compound 0.8 µM): 0.852
relative viability (NCI-H1651; first compound 2.53 µM): 0.825
relative viability (NCI-H2126; first compound 0.08 µM): 0.996
relative viability (NCI-H2126; first compound 0.253 µM): 1.02
relative viability (NCI-H2126; first compound 0.8 µM): 0.968
relative viability (NCI-H2126; first compound 2.53 µM): 1.01
relative viability (HCC-44; first compound 0.08 µM): 0.781
relative viability (HCC-44; first compound 0.253 µM): 0.886
relative viability (HCC-44; first compound 0.8 µM): 0.774
relative viability (HCC-44; first compound 2.53 µM): 0.767
relative viability (NCI-H1915; first compound 0.08 µM): 0.85
relative viability (NCI-H1915; first compound 0.8 µM): 0.896
relative viability (NCI-H1915; first compound 2.53 µM): 0.931
relative viability (LK-2; first compound 0.08 µM): 0.194
relative viability (LK-2; first compound 0.253 µM): 0.239
relative viability (LK-2; first compound 0.8 µM): 0.242
relative viability (LK-2; first compound 2.53 µM): 0.236
relative viability (NCI-H2087; first compound 0.08 µM): 0.744
relative viability (NCI-H2087; first compound 0.253 µM): 0.823
relative viability (NCI-H2087; first compound 0.8 µM): 0.862
relative viability (NCI-H2087; first compound 2.53 µM): 0.693
relative viability (201T; first compound 0.08 µM): 1.07
relative viability (201T; first compound 0.253 µM): 0.982
relative viability (201T; first compound 0.8 µM): 1.02
relative viability (201T; first compound 2.53 µM): 0.998
relative viability (LCLC-103H; first compound 0.08 µM): 1.04
relative viability (LCLC-103H; first compound 0.253 µM): 1.12
relative viability (LCLC-103H; first compound 0.8 µM): 0.984
relative viability (LCLC-103H; first compound 2.53 µM): 0.954
relative viability (BEN; first compound 0.08 µM): 0.908
relative viability (BEN; first compound 0.253 µM): 0.787
relative viability (BEN; first compound 0.8 µM): 0.846
relative viability (BEN; first compound 2.53 µM): 0.876
relative viability (EMC-BAC-2; first compound 0.08 µM): 0.841
relative viability (EMC-BAC-2; first compound 0.253 µM): 0.739
relative viability (EMC-BAC-2; first compound 0.8 µM): 0.814
relative viability (EMC-BAC-2; first compound 2.53 µM): 0.703
relative viability (NCI-H596; first compound 0.08 µM): 0.921
relative viability (NCI-H596; first compound 0.253 µM): 0.906
relative viability (NCI-H596; first compound 0.8 µM): 0.968
relative viability (NCI-H596; first compound 2.53 µM): 0.927
relative viability (NCI-H2347; first compound 0.08 µM): 0.734
relative viability (NCI-H2347; first compound 0.253 µM): 0.632
relative viability (NCI-H2347; first compound 0.8 µM): 0.753
relative viability (NCI-H2347; first compound 2.53 µM): 0.741
